The target of assay [1] is T1, EnLOX (wild-type, WT); lipoxygenase from Enterovibrio norvegicus (Enterovibrio norvegicus, UniProt A0A1I5T4S6, D95E/T99A/A121H/S142N/N444W/S613G, form not given).
T1 construct: primer-encoded N-terminus MHRKKT
T1 sequence (A0A1I5T4S6 1-726 D95E/T99A/A121H/S142N/N444W/S613G): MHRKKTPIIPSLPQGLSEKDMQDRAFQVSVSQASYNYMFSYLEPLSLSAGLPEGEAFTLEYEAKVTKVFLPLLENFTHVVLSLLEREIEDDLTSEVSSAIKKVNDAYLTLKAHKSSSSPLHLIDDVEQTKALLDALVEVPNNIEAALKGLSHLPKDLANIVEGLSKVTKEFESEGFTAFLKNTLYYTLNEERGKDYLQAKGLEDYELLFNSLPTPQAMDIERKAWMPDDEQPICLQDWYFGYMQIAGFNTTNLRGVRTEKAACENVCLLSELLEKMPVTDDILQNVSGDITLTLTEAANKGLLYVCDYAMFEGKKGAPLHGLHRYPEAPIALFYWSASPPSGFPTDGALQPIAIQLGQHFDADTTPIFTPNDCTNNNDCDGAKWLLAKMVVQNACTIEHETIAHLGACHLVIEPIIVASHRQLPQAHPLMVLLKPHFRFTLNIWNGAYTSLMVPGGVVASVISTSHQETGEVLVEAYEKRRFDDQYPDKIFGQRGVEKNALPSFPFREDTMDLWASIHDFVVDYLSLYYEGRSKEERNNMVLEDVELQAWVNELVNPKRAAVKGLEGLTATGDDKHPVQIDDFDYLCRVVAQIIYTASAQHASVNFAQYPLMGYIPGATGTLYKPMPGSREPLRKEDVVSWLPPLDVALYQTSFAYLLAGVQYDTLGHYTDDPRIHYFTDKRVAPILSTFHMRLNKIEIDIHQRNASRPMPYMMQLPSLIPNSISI
Kind of assay: absorbance at […] nm (hydroperoxide formation), Michaelis-Menten fit. It counts as biochemical. The note with it: 20 mM Tris-HCl pH 8.0, 50 °C; substrate range printed as 10 to 300 mM (unit doubtful against the Km); mutant EAHNWG (F-12E); printed nucleotide changes do not fully match the amino acid positions.

Assay [2] has as its target T2, EnLOX (wild-type, WT); lipoxygenase from Enterovibrio norvegicus (Enterovibrio norvegicus, UniProt A0A1I5T4S6).
T2 construct: primer-encoded N-terminus MHRKKT
T2 sequence (A0A1I5T4S6 1-726): T1 sequence (A0A1I5T4S6 1-726 D95E/T99A/A121H/S142N/N444W/S613G) with E95D, A99T, H121A, N142S, W444N, G613S
Described as above. The note with it: 20 mM Tris-HCl pH 8.0, 50 °C; substrate range printed as 10 to 300 mM (unit doubtful against the Km). It counts as biochemical.

Usually Km stands for the substrate concentration at which the rate is half of its maximum.

Each structure is given as a SMILES string. Numbering of substitutions follows the chain as printed.

On to `CCCCC/C=C\C/C=C\CCCCCCCC(=O)O` [linoleic acid], for which the Michaelis-Menten constant (Km) was 2.36 ± 0.14 µM in assay [1] and 3.49 ± 0.21 µM in assay [2].

Values taken from article PMC10690365, “Improved catalytic performance and molecular insight for lipoxygenase from Enterovibrio norvegicus via directed evolution” (Frontiers in Bioengineering and Biotechnology, 2023).
